Experimental data taken from PMC10895676, “Antiviral Activity of Lipophilic Nucleoside Tetraphosphate Compounds” (Journal of Medicinal Chemistry, 2024).
“And” between values parts separate entries of the source, which are not always exact repeats. Identical values can stand only once. Like-named read-outs stand apart in the source and are kept apart here.

Legend:
[1] = cited from earlier work
pig liver esterase (PLE) = assay: Enzymatic hydrolysis with pig liver esterase (PLE); format: in vitro ADME; settings: pig liver esterase in phosphate buffer, PLE in phosphate buffer pH 7.3, 37 °C, read-out: PLE t1/2 (converted)
Description: To confirm the enzymatic hydrolysis process, TetraPPPPro-nucleotides 4–9 bearing different kinds of lipophilic groups attached to the δ-phosph(on)ate group were incubated with PLE in phosphate buffer.
Then, 833 μL of 50 mM phosphate buffer (pH 7.3) and 125 μL of DMSO were added to the 6.0 mM hydrolysis solutions. The reaction was started by addition of 62.5 μL of PLE in phosphate buffer (100 units/mL), and the mixture was incubated at 800 rpm at 37 °C in a thermomixer. (1). At different times, aliquots (75 μL) were taken and stopped by the addition of […] of MeOH. The mixture was stored in liquid nitrogen. When testing, samples were warmed up to room temperature, and 60 μL of the liquid was directly injected into HPLC analysis. (2). 40 μL for each extraction was stored in liquid nitrogen. When testing, samples were warmed up to room temperature, and 30 μL of the liquid was taken and injected into the analytical RP-18-HPLC instrument. The calculation of t1/2 was performed analogously to that for the chemical hydrolysis studies.

HIV-1 (HE) = assay: Anti-HIV replication assay, HIV-1 (HE) in wild-type CEM/0 cells; format: cell-based; settings: for EC50: Human immunodeficiency virus 1, CCRF-CEM, wild-type CEM/0 cells, mean ± SD, n = 2–3, read-out: HIV-1 (HE) EC50
Description: (§1) Inhibition of HIV-1(HE)- and HIV-2(ROD)-induced cytopathogenicity in wild-type CEM/0 CEM CD4^+ T-cells and thymidine kinase-deficient CEM/TK^– cell cultures was measured in microtiter 96-well plates containing ∼3 × 10^5 CEM cells/mL infected with 100 CCID50 of HIV per milliliter and containing appropriate dilutions of the test compounds. After 4–5 days of incubation at 37 °C in a CO2-controlled humidified atmosphere, virus-induced cellular effects and syncytia cell formation were examined microscopically. The EC50 (50% effective concentration) was defined as the compound concentration required to inhibit HIV-induced giant cell formation by 50%.

HIV-2 (ROD) [2] = assay: Anti-HIV replication assay, HIV-2 (ROD) in thymidine kinase-deficient CEM/TK– cells; format: cell-based; settings: for selectivity index (SI): CC50/EC50, HIV-2 (ROD) in CEM/TK– cells; for EC50: Human immunodeficiency virus 2, CEM/TK– cells, mean ± SD, n = 2–3, read-out: CEM/TK– HIV-2 (ROD) EC50
Description: as §1, with “microscopically.” for “microscopically. The EC50 (50% effective concentration) was defined as the compound concentration required to inhibit HIV-induced giant cell formation by 50%.”

HIV-2 (ROD) [3] = assay: Anti-HIV replication assay, HIV-2 (ROD) in wild-type CEM/0 cells; format: cell-based; settings: for selectivity index (SI): CC50/EC50, HIV-2 (ROD) in CEM cells; for EC50: Human immunodeficiency virus 2, CCRF-CEM, read-out: HIV-2 (ROD) EC50
Description: as §1, with “microscopically.” for “microscopically. The EC50 (50% effective concentration) was defined as the compound concentration required to inhibit HIV-induced giant cell formation by 50%.”

[4] = Cytotoxicity, inhibition of CEM/TK– cell proliferation; format: cell-based; settings: human, CEM/TK– cells (CD4+ T-cells), read-out: toxicity CC50
[5] = Chemical hydrolysis in aqueous buffers (PBS pH 7.3 / 8.0, citrate buffer pH 2.0), RP18-HPLC; format: physicochemical; settings: phosphate buffered saline; 25 mM PBS, pH 7.3, 37 °C; read-out: PBS pH 7.3 t1/2 (converted)
Description: All metabolite mixtures were analyzed and quantified by means of analytical RP18-HPLC (UV detection).
The solution was incubated at 37 °C in a thermomixer. […] for each extraction and stored at −30 °C. When testing, samples were warmed up to room temperature, and 25 or 20 μL of the liquid was taken and injected into the analytical RP-18-HPLC instrument. Further aliquots were taken for monitoring the kinetic hydrolysis.
5.88 g of citric acid and 3.58 g of NaCl were dissolved in 82 mL of hydrochloric acid (0.1 mol/L). Then, sodium hydroxide was added to adjust the pH to 2.0.

[6] = Cytotoxicity, inhibition of CEM cell proliferation; format: cell-based; settings: human, CEM cells (CD4+ T-cells), read-out: toxicity CC50
[7] = Hydrolysis in CEM/0 cell extracts; format: in vitro ADME; settings: human, 37 °C, read-out: CEM/0 cell extracts t1/2 (converted)
Description: Next, TetraPPPPro-nucleotides 4–9 were incubated in human CD4^+ T-lymphocyte CEM/0 cell extracts to study their stability and identify the hydrolysis products.
CEM cells were grown in RPMI-1640-based cell culture medium to a final density of ∼3 × 10^6 cells/mL. Cells were centrifuged for 10 min at 1250 rpm at 4 °C and washed twice with cold PBS, and the pellet was resuspended at 10^8 cells/mL and sonicated (Hielscher Ultrasound Techn., 100% amplitude, 3·times for 10 s) to destroy cell integrity. Next, the resulting cell suspension was centrifuged at 10,000 rpm to remove cell debris. Finally, the supernatant was divided into aliquots and frozen at −80 °C.
6.0 mM hydrolysis solutions of compounds 4–9 were prepared from 21 μL of 50 mM DMSO stock solutions and 154 μL of DMSO. Two different samples, including 10 μL of water and 10 μL of 6.0 mM hydrolysis solution, were prepared in 2 mL Eppendorf vials. Next, 50 μL of human CEM cell extracts or 50 μL of human citrate plasma were added to the mixture, the reaction was started, and the mixture was incubated at 37 °C for different time periods. The reactions were stopped by the addition of 150 μL of MeOH. The resulting suspension was kept on ice for 5 min, followed by defrosting and centrifugation at 14,000 rpm (Heraeus, Biofuge Pico) for 22 min. The supernatants (80 or 60 μL) were directly injected into HPLC. The calculation of t1/2 was performed analogously to that for the chemical hydrolysis studies.

[8] = wild-type CEM/0 cells, mean ± SD, n = 2–3

| Compound | PBS pH 7.3 t1/2 ([1]; buffer) | half-life at 0.45 mM (pig liver esterase (PLE)) | increase in antiviral potency as compared to d4T (HIV-1 (HE); HIV-1, CEM/0 cells) | EC50 (HIV-1 (HE)) | selectivity index (SI) (HIV-2 (ROD) [2]) | EC50 (HIV-2 (ROD) [2]) | selectivity index (SI) (HIV-2 (ROD) [3]) | increase in antiviral potency as compared to d4T (HIV-2 (ROD) [3]; HIV-2, CEM/0 cells) | EC50 (HIV-2 (ROD) [3]; [8]) | CC50 [4] | half-life at 1.9 mM [5] | CC50 [6] | half-life at 0.86 mM [7] | improvement of antiviral activity as compared to the parent d4T (HIV-2 (ROD) [2]; HIV-2, CEM/TK– cells) | PBS pH 7.3 t1/2 ([1]; PBS) | EC50 (HIV-2 (ROD) [3]) |
| --- | --- | --- | --- | --- | --- | --- | --- | --- | --- | --- | --- | --- | --- | --- | --- | --- |
| β-(AB-C4; C18)-d4TDP [33a] | 406 h |  |  |  |  |  |  |  |  |  |  |  |  |  |  |  |
| β-(alkyl-C4)-β-C-(alkyl-C18)-d4TDP | > 3000 h |  |  |  |  |  |  |  |  |  |  |  |  |  |  |  |
| β-(AB-C4)-β-C-(C18)-d4TDP [33b] | > 1000 h |  |  |  |  |  |  |  |  |  |  |  |  |  |  |  |
| CCCCCCCCCCCCCCCCCCP(=O)(OCc1ccc(OC(=O)CCCC)cc1)OP(=O)(O)OP(=O)(O)OP(=O)(O)OC[C@@H]1C=C[C@H](n2cc(C)c(=O)[nH]c2=O)O1 (stereo partly drawn) [compound 7, δ-(AB-C4)-δ-C-(alkyl-C18)-d4T4P] |  | 0.5 h | 36 fold | 9.2 ± 8.2 nM | 5700 and 5677 | 6.5 ± 5.7 nM | 4330 | 107 fold | 9.1 ± 7.7 nM | 36900 nM | > 600 h | 39400 nM | > 8 h |  |  |  |
| CCCCCCCCCCCCOP(=O)(OCCCCCCCCCCCC)OP(=O)(O)OP(=O)(O)OP(=O)(O)OC[C@@H]1C=C[C@H](n2cc(C)c(=O)[nH]c2=O)O1 [4b, δ-(Alkyl-C12; alkyl-C12)-d4T4P] |  |  |  | 170 ± 100 nM | 2927 | 29 ± 37 nM | 405 |  | 110 ± 50 nM | 84900 nM | 215 h | 44600 nM |  | > 1700 fold |  |  |
| CCCCCCCCCCCCCCCCCCOP(=O)(OCCCCCCCCCCCCCCCCCC)OP(=O)(O)OP(=O)(O)OP(=O)(O)OC[C@@H]1C=C[C@H](n2cc(C)c(=O)[nH]c2=O)O1 [4c, δ-(Alkyl-C18; alkyl-C18)-d4T4P] |  |  |  | 1990 ± 900 nM | 13 | 6180 ± 1000 nM | 24 |  | 2090 ± 580 nM | 84100 nM |  | 50000 nM |  |  |  |  |
| CCCCCCCCCCCCCCCCCCP(=O)(OCC(CC)CCCC)OP(=O)(O)OP(=O)(O)OP(=O)(O)OC[C@@H]1C=C[C@H](n2cc(C)c(=O)[nH]c2=O)O1 (stereo partly drawn) [5b, δ-(Alkyl-C8)-δ-C-(alkyl-C18)-d4T4P] |  |  |  | 1440 ± 700 nM | 312 | 160 ± 130 nM | >77 |  | 1300 ± 640 nM | 50000 nM | > 1000 h | > 100000 nM |  |  |  |  |
| CCCCCCCCCCCCCCCCCCOP(=O)(OCc1ccc(OC(=O)CCCC)cc1)OP(=O)(O)OP(=O)(O)OC[C@@H]1C=C[C@H](n2cc(C)c(=O)[nH]c2=O)O1 (stereo partly drawn) [2a, γ-(AB-C4; C18)-d4TTP] |  |  |  |  |  |  |  |  |  |  |  |  |  |  | 237 h |  |
| CCCCCCCCCCCCCCCCOC(=O)Oc1ccc(COP(=O)(OCc2ccc(OC(=O)CCCC)cc2)OP(=O)(O)OP(=O)(O)OP(=O)(O)OC[C@@H]2C=C[C@H](n3cc(C)c(=O)[nH]c3=O)O2)cc1 (stereo partly drawn) [compound 9, δ-(AB-C4; ACB-C16)-d4T4P] |  | 1.03 h |  | 170 ± 50 nM | 5 | 9710 ± 4780 nM | 365 |  | 210 ± 110 nM | 50000 nM | 25 h | 76800 nM | 2.58 h |  |  |  |
| CCCCCCCCCCCCCCCCCCOP(=O)(OCC(CC)CCCC)OP(=O)(O)OP(=O)(O)OP(=O)(O)OC[C@@H]1C=C[C@H](n2cc(C)c(=O)[nH]c2=O)O1 (stereo partly drawn) [4e, δ-(Alkyl-C8; alkyl-C18)-d4T4P] |  |  |  | 440 ± 170 nM | 114 | 430 ± 210 nM | 139 |  | 320 ± 90 nM | 48900 nM | 325 h | 44700 nM |  |  |  |  |
| Cc1cn([C@H]2C=C[C@@H](CO)O2)c(=O)[nH]c1=O [d4T, 3′-deoxy-2′,3′-didehydrothymidine, reference compound] |  |  |  | 330 ± 130 nM |  | > 50000 nM |  |  |  | > 50000 nM |  | > 50000 nM |  |  |  | 970 ± 500 nM |
